The values below come from patent publication US20140004209A1, “AUTOPHAGY INDUCER AND INHIBITOR COMBINATION THERAPY FOR THE TREATMENT OF NEOPLASMS” (GENENTECH, INC., priority 2010, published 2014).

“Also recorded” adds a separate entry of the source.

Experiment [1] has as its system PC3 cells. Description: Mitochondrial superoxide (MitoSOX red) and cellular ROS in PC3 cells. In kind it is cell-based, human.
Method: (B) PC3 cells treated as in A were stained with the Image-iT LIVE green ROS Detection kit and examined by fluorescence microscopy at 24 h. […] (C) Quantification of MitoSOX red and ROS green fluorescence intensities by flow cytometry at 24 h. Cells were treated as in A and B. Error bars represent SEM (n=3).
Because mitochondria are the primary intracellular source of superoxide (O2^−) generation, we analyzed O2^− production using MitoSOX red, an O2^− indicator that accumulates in the mitochondria as a function of membrane potential and fluoresces upon oxidation and subsequent binding to DNA.
Experiment [2] deals with PC3 cells. Description: Time-lapse microscopy of PC3 cells. Format: cell-based, human. As to conditions: 10 μM, 5% FBS, 3 d. As to the method:
Time-lapse video microscopy: Cells cultured in 24-well plates were imaged on an Olympus IX81 inverted microscope under environmental control (37° C. and 5% CO2) for 3 days. Imaging started 6 hours after the addition of the compounds and was taken at 1-hour intervals.

Experiment [3] concerns PC3 cells. In words: Mitochondrial membrane potential (MitoPT dye) in PC3 cells. Format: cell-based, human. The note with it: 0.5% FBS. On the procedure: FIG. 21. […] Images at 48 h are shown. […] Merged images between red and green channels are also shown (MitoPT-M). Scale bar: 20 μm. (B) Percentage of cells showing red punctate stains and diffuse green stains from treatments described in (A). >86 cells from two random fields of fluorescent images of each treatment were counted. Error bars represent standard deviations between the two fields. […] Total fluorescence intensity from all cells was collected using the Isocyte (Blueshift Biotechnologies), a laser scanning imager. Green fluorescence intensity is collected with a 488 nm laser and a 510-540 nm band pass filter, and normalized to cell number determined by Hoechst staining using a 405 nm laser and a 430-480 nm band pass filter. Error bars, standard deviation between two independent experiments. (D) Representative images of the green ROS signals and bright field (BF) taken under a Nikon TE300 inverted microscope. […] Scale bar: 20 μm.
Cell Culture and Reagents: The PTEN^−/− and PTEN^+/+ MEFs were maintained as previously described (Sun, H., R. Lesche, D. M. Li, J. Liliental, H. Zhang, J. Gao, N. Gavrilova, B. Mueller, X. Liu, and H. Wu, (1999), PTEN modulates cell cycle progression and cell survival by regulating phosphatidylinositol 3,4,5,-trisphosphate and Akt/protein kinase B signaling pathway. Proc Natl Acad Sci USA. 96:6199-204). The PC3 and U87MG cells were maintained at 37° C. and 5% CO2 in DMEM/Ham's F-12 (1:1) containing 10% tetracycline-free fetal bovine serum. II-4 was from Calbiochem (Akt inhibitor VIII) (Barnett, S. F., D. Defeo-Jones, S. Fu, P. J. Hancock, K. M. Haskell, R. E. Jones, J. A. Kahana, A. M. Kral, K. Leander, L. L. Lee, J. Malinowski, E. M. McAvoy, D. D. Nahas, R. G. Robinson, and H. E. Huber, (2005), Identification and characterization of pleckstrin-homology-domain-dependent and isoenzyme-specific Akt inhibitors. Biochem J. 385:399-408). […] Image-iT LIVE Green Reactive Oxygen Species Detection Kit was purchased from Molecular Probes. MitoPT Mitochondria Permeability Transition Detection Kit was purchased from Immunochemistry Technologies, LLC.

Experiment [4] deals with PC3 cells. Description: Immunoblot of LAMP1, cathepsin D and p62 in PC3 cells. In kind it is cell-based, human. The source says: (§1) Western blot analysis, immunofluorescence, 1HC and TUNEL assay: For Western blot analysis, total protein lysates were subjected to SDS-PAGE and transferred to nitrocellulose. Antibodies used were: anti-Akt1, anti-Akt2, anti-Akt3, anti-total-Akt, anti-p-Akt (Ser473), anti-p-Akt (Thr308), anti-p-S6 (Ser235/236), anti-PARP and anti-cleaved caspase-3 (Cell Signaling Technology); anti-p-PRAS40 (Invitrogen); anti-p27^Kip1 (Santa Cruz Biotechnology); anti-LC3 (Novus); anti-LAMP2 and anti-Cathepsin D (BD Biosciences); and anti-GAPDH (Advanced Immunochemical Inc.). […] Detection and quantification were performed using an Odyssey infrared scanner (LICOR) using the manufacturer's software. For immunofluorescence staining, cells were fixed in 3% paraformaldehyde and permeabilized with 0.01% digitonin in PBS, followed by a rabbit polyclonal anti-LC3 (Abgent) primary antibody detected with a cy3-conjugated anti-rabbit secondary antibody (Jackson Immunoresearch). For IHC, formalin-fixed, paraffin-embedded specimens were collected. 5-μm-thick paraffin-embedded sections were stained using an anti-Ki-67 (MIB-1, DakoCytomation) antibody with the Dako ARK kit (Dako Corporation). Tissues were counterstained with haematoxylin, dehydrated, and mounted. In all cases, antigen retrieval was performed with the Dako Target Retrieval Kit as per manufacturer's instructions. For TUNEL assay, formalin-fixed, paraffin-embedded sections were stained using an in situ cell death detection kit (POD; Roche Diagnostic) according to the manufacturer's instructions.
Because autophagy is a key function of the lysosomal compartment (Terman, A., B. Gustafsson, and U. T. Brunk, (2006), The lysosomal-mitochondrial axis theory of postmitotic aging and cell death. Chem Biol Interact. 163:29-37), we examined the lysosomal marker LAMPI and cathepsin D, the predominant lysosomal aspartic protease, by immunoblotting (FIG. 6, B and C). […] Cathepsin D is synthesized as a 43-kD preprocathepsin D that is cleaved cotranslationally and glycosylated to form a 46-kD procathepsin D, which is targeted to lysosomes yielding an intermediate that is further cleaved into a mature enzyme consisting of a 15-kD light chain and a 28-kD heavy chain.
On the technique in general: In western blotting, separated proteins are transferred to a membrane and probed.

Another experiment concerns PC3 xenograft tumors. In words: PC3 xenograft tumor growth. In kind it is in vivo, mice. On the procedure:
Xenograft study: Six- to 8-week-old female athymic nude nu/nu mice were purchased from Charles River Laboratories and maintained in Genentech's conventional animal facility. Mice were injected in the right flank with 5˜7.5×10^6 cells resuspended in 200 μl Hank's Balanced Salt Solution (Invitrogen). When tumors reached a mean volume of 100˜300 mm^3 the mice with similarly-sized tumors were grouped into treatment cohorts. […] Amber-colored water bottles were used and were changed 3 times per week. […] Tumors were measured with calipers and mice weighed twice per week. Mice whose tumors reached 2000 mm^3 or lost more than 20% body weight were euthanized. Between 8˜10 mice were used for each treatment group. Statistical significance was analyzed using the JMP software (SAS Institute, Inc.).
We next examined the effect of Akt KDs on the ability of PC3 cells to maintain the growth of established tumors in vivo.

Experiment [5] relates to PC3 cells. Description: Autophagy markers in PC3 cells (EM AVs, GFP-LC3, LC3-II/LC3-I, MDC, AO). Format: cell-based, human. As to the method: as §1, with “nitrocellulose.” for “nitrocellulose. Antibodies used were: anti-Akt1, anti-Akt2, anti-Akt3, anti-total-Akt, anti-p-Akt (Ser473), anti-p-Akt (Thr308), anti-p-S6 (Ser235/236), anti-PARP and anti-cleaved caspase-3 (Cell Signaling Technology); anti-p-PRAS40 (Invitrogen); anti-p27^Kip1 (Santa Cruz Biotechnology); anti-LC3 (Novus); anti-LAMP2 and anti-Cathepsin D (BD Biosciences); and anti-GAPDH (Advanced Immunochemical Inc.).”
Ultrathin sections were stained with uranyl acetate and lead citrate. Numbers of AV were counted on systematically sampled cytoplasmic areas of 4.5 μm^2 (n≧64 per condition). The percent AV area was measured by means of a square mesh grid laid over ≧5 sets of systematically sampled micrographs with each set covering a cytoplasmic area ≧80 μm^2. The average percent of apoptotic nuclei in tumor tissues was calculated from the number of apoptotic nuclei in 3 to 4 sets of 100 systematically counted tumor cell nuclei.
Multispectral imaging flow cytometry: Cells treated with various agents were stained with Acridine Orange and analyzed by the ImageStream system (Amnis Corporation, Seattle, Wash.) using the IDEAS image analysis program. The DNA AOGreen image and the vacuolar AO Red image were first compensated into separate channels, and then the percentage of apoptotic/anucleate cells (based on AO nuclear morphology and intensity) and vacuolated cells (AO Red+) were quantified. […] AORed Intensity is plotted on the second histogram with an arbitrary gate (R5) drawn to include events with the brightest AO Red intensity.

Experiment [6] can be described thus: Autophagic vacuole accumulation by side scatter (SSC) in a flow cytometer. Format: cell-based. An excerpt:
Inhibitors include 3-phenyl-2-(4-((4-(5-(pyridin-2-yl)-1H-1,2,4-triazol-3-yl)piperidin-1-yl)methyl)phenyl)-1,6-naphthyridin-5(6H)-one (II-3), benzyl 2-(4-(3-ethylureido)phenyl)-4-(1,4-oxazepan-4-yl)-5H-pyrrolo[3,4-d]pyrimidine-6(7H)-carboxylate (III-1); 1-ethyl-3-(4-(4-morpholino-7-(pyrimidin-2-yl)-5,6,7,8-tetrahydropyrido[3,4-d]pyrimidin-2-yl)phenyl)urea (III-2), (R)-1-(44(2-(2-aminopyrimidin-5-yl)-7-methyl-4-morpholinothieno[3,2-d]pyrimidin-6-yl)methyl)piperazin-1-yl)-2-hydroxypropan-1-one (III-3), 4-(2-(1H-indazol-4-yl)-6-((4-(methylsulfonyl)piperazin-1-yl)methyl)thieno[3,2-d]pyrimidin-4-yl)morpholine (III-6), (S)—N-(4-(benzo[d][1,3]dioxol-5-yl)thiazol-2-yl)-N-(3-(2-formylpiperidin-1-yl)propyl)thiophene-2-carboxamide (IV-2) and Rapamycin.
FIG. 14 depicts CQ (10 μM) increases the number and size of autophagic vacuoles when combined with the various mTOR, PI3K, and Akt inhibitors.

A short description of experiment [7]: Cell death in combination with CQ (FIG. 17). In kind it is cell-based.
A further experiment relates to Akt. Description: Immunoblot of Akt and S6 phosphorylation in PC3 cells. The note with it: 5 mM NAC. Format: cell-based, human. An excerpt:
Western blot analysis, immunofluorescence, 1HC and TUNEL assay: For Western blot analysis, total protein lysates were subjected to SDS-PAGE and transferred to nitrocellulose. Antibodies used were: anti-Akt1, anti-Akt2, anti-Akt3, anti-total-Akt, anti-p-Akt (Ser473), anti-p-Akt (Thr308), anti-p-S6 (Ser235/236), anti-PARP and anti-cleaved caspase-3 (Cell Signaling Technology); anti-p-PRAS40 (Invitrogen); anti-p27^Kip1 (Santa Cruz Biotechnology); anti-LC3 (Novus); anti-LAMP2 and anti-Cathepsin D (BD Biosciences); and anti-GAPDH (Advanced Immunochemical Inc.). Primary antibodies were detected using IR Dye 800-conjugated (Rockland) and Alexa-Fluoro 680-conjugated (Molecular Probes) species-selective secondary antibodies. Detection and quantification were performed using an Odyssey infrared scanner (LICOR) using the manufacturer's software. For immunofluorescence staining, cells were fixed in 3% paraformaldehyde and permeabilized with 0.01% digitonin in PBS, followed by a rabbit polyclonal anti-LC3 (Abgent) primary antibody detected with a cy3-conjugated anti-rabbit secondary antibody (Jackson Immunoresearch). For IHC, formalin-fixed, paraffin-embedded specimens were collected. 5-μm-thick paraffin-embedded sections were stained using an anti-Ki-67 (MIB-1, DakoCytomation) antibody with the Dako ARK kit (Dako Corporation). Tissues were counterstained with haematoxylin, dehydrated, and mounted. In all cases, antigen retrieval was performed with the Dako Target Retrieval Kit as per manufacturer's instructions. For TUNEL assay, formalin-fixed, paraffin-embedded sections were stained using an in situ cell death detection kit (POD; Roche Diagnostic) according to the manufacturer's instructions.

In experiment [8] the test system is PC3 cells. In words: PC3 cell viability and cell death (PI exclusion, annexin V, caspase-3/7). In kind it is cell-based, human. On the procedure:
Cell viability and cell cycle analysis. Cell number and viability was measured using trypan blue exclusion assay using a Vi-Cell Analyzer (Beckman Coulter), or labeled with 1 μg/ml PI in PBS/1% BSA followed by cytofluorometric analysis with a fluorescence-activated cell sorter (FACS) (Becton Dickinson). FITC-conjugated Annexin V was used for the assessment of phosphatidylserine exposure by FACS analysis. Caspase activation was analyzed using a Caspase-Glo 3/7 Assay kit (Promega). For cell cycle analysis, cells were fixed with drop-wise addition of chilled 70% ethanol, washed with PBS and resuspended in staining solution containing 50 μg/ml PI and 60 units of RNAse A. DNA content was analyzed by flow cytometry using the FlowJo and ModFit software (Becton Dickinson).

As to `CCN(CC)CCCC(C)Nc1ccnc2cc(Cl)ccc12` (stereo not shown) [CQ, chloroquine], in the experiment with PC3 cells [1], the “MitoSOX fluorescence, agent alone” value is recorded as “mild increase in MitoSOX signal” and the “cellular ROS signal, agent alone” value was “little effect on ROS levels”. Further, the “cell division and morphology, agent alone” value in the experiment with PC3 cells [2] was “mild decrease in cell division and a gradual accumulation of dark particles in the perinuclear region”. Further, the “mitochondrial membrane potential, agent alone” value in the experiment on PC3 cells [3] is reported as “did not have a significant effect”. For the same molecule, the p62 level entry in the experiment with PC3 cells [4] was “increased the level of p62 both with and without Akti; also recorded: blocked p62 degradation both with and without II-4 treatment”. Further, in the experiment with PC3 xenograft tumors (PC3-shAkt123 xenograft, both Dox and CQ), the “tumors with stasis maintained throughout the study” value is 20%. The “tumors with complete regression” value in the experiment on PC3 xenograft tumors (PC3-shAkt123 xenograft, both Dox and CQ, intraperitoneal) was determined as 40%. Moreover, in the experiment with PC3 xenograft tumors (mouse, in vivo), the “incidence of complete tumor remission, CQ combined with Akt knockdown” value is “significantly increased the incidence of complete tumor remission; also recorded: increased the incidence of complete tumor remissions in vivo”. In the experiment on PC3 cells [5], the “AVO accumulation, agent alone (multispectral imaging flow cytometry)” value was “induced AVO accumulation without significant loss of viability” and the “induction of AV accumulation / autophagy, agent alone” value is on record as “induced accumulation of AVs”.

As to `CS(=O)(=O)N1CCN(Cc2cc3nc(-c4cccc5[nH]ncc45)nc(N4CCOCC4)c3s2)CC1` [III-6, 4-(2-(1H-indazol-4-yl)-6-((4-(methylsulfonyl)piperazin-1-yl)methyl)thieno[3,2-d]pyrimidin-4-yl)morpholine], the “autophagic vacuole accumulation (SSC), inhibitor alone” value in [6] is given as “induce increased autophagic vacuole accumulation”. Also, in experiment [7], the “interaction with CQ on cell death” value is recorded as “synergize with CQ to accelerate cell death”.

Consider `CC(=O)N[C@@H](CS)C(=O)O` [NAC, N-acetylcysteine], for which the “effect of NAC on MitoSOX Red signal” value with PC3 cells [1] (5 mM NAC) is reported as “reduced MitoSOX Red signal induced by the various treatments”. Besides, in the experiment with Akt, the “effect of NAC on Akti's inhibition of pAkt or pS6” value is “did not affect Akti's ability to inhibit pAkt or pS6”. Besides, in the experiment on PC3 cells [5] (5 mM NAC), the “effect of NAC on Akti-induced autophagy markers” value is “counteracted all these effects induced by Akti with or without CQ; also recorded: reduced Akti-induced LC3 and GFP-LC3 lipidation, p62 degradation, and GFP-LC3 puncta formation”. Besides, the “rescue of cell death induced by II-4 (Akti) and CQ” value in the experiment with PC3 cells [8] is “NAC rescued cell death induced by Akti+CQ; also recorded: rescued cell viability in the presence of II-4 and CQ”.
